Peptide text beside a SMILES is read from it.
How the values were obtained:
Format in all cases: biochemical
[1] = biological target: T1, HDAC6 (Homo sapiens, UniProt Q9UBN7); test: HDAC6 inhibition, full IC50 measurement (Reaction Biology; fluorogenic p53 peptide RHKK(Ac)AMC)
T1 construct: purchased Reaction Biology Corporation (assay run by the CRO)
T1 sequence (Q9UBN7 1-1215): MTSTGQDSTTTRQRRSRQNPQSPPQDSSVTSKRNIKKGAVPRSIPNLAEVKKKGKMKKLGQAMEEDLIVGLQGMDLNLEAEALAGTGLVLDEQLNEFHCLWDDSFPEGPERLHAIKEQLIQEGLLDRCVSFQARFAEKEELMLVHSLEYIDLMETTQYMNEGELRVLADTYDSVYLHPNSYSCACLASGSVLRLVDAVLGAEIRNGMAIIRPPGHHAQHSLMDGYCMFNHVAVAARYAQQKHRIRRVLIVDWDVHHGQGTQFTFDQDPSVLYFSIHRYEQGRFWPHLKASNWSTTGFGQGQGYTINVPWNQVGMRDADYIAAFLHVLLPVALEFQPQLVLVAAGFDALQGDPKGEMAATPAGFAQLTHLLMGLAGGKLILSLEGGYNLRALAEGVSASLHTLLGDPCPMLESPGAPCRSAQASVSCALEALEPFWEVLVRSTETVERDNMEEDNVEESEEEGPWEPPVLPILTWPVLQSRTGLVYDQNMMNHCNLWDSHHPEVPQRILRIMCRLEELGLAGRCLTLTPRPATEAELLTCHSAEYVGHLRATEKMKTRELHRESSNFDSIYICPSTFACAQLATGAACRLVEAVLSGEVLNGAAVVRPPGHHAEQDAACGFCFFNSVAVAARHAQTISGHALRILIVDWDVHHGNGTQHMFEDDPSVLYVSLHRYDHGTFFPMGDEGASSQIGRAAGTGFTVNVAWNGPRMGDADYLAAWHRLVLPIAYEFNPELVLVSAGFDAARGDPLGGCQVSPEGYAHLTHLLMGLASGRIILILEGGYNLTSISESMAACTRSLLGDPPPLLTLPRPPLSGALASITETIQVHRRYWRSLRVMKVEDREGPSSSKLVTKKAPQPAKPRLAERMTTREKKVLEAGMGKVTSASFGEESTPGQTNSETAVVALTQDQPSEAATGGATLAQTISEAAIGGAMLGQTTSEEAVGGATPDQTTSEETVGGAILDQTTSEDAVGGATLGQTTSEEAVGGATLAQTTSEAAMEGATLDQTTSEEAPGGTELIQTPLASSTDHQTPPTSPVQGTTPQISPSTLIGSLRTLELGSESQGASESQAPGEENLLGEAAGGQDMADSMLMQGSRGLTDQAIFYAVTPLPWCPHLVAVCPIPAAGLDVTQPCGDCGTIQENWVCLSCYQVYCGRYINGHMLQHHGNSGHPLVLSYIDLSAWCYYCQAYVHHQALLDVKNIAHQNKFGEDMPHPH
Procedure, shortened: (§1)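 Test peptides were dispensed acoustically with enzyme in 50 mM Tris-HCl pH 8.0, 137 mM NaCl, 2.7 mM KCl, 1 mM MgCl2, 1 mg/ml BSA and 1% DMSO. After adding 50 μM RHKK(Ac)AMC, reactions ran 1 h at 30 °C, then developer was added.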

[2] = biological target: T2, HDAC3 (Homo sapiens, UniProt O15379); test: HDAC3 inhibition, full IC50 measurement (Reaction Biology; fluorogenic p53 peptide RHKK(Ac)AMC)
T2 construct: purchased Reaction Biology Corporation (assay run by the CRO)
T2 sequence (O15379 whole entry): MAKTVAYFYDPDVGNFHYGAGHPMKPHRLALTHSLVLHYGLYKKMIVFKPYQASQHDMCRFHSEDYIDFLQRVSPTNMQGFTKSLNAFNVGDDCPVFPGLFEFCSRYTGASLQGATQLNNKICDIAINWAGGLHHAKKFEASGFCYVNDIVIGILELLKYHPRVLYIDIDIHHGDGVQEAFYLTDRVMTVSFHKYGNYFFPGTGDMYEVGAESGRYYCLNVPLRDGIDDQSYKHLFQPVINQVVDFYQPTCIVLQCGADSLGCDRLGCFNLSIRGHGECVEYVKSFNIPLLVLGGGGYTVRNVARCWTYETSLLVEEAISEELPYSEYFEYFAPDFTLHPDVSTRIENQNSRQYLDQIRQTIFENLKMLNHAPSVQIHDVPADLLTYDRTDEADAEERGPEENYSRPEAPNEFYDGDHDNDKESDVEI
T2 sequence (Q9Y618 395-489 partner limits assumed): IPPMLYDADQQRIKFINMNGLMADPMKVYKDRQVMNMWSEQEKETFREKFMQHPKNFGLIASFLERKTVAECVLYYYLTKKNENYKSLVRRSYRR
Procedure, shortened: as §1

[3] = biological target: T3, HDAC2 (Homo sapiens, UniProt Q92769); test: Initial HDAC2 IC50 estimate (BPS Biosciences HDAC fluorogenic assay kit); details: Supplementary Dataset 2; read-out: HDAC2 activity (initial activity)
T3 construct: purchased Reaction Biology Corporation (assay run by the CRO)
T3 sequence (Q92769 whole entry): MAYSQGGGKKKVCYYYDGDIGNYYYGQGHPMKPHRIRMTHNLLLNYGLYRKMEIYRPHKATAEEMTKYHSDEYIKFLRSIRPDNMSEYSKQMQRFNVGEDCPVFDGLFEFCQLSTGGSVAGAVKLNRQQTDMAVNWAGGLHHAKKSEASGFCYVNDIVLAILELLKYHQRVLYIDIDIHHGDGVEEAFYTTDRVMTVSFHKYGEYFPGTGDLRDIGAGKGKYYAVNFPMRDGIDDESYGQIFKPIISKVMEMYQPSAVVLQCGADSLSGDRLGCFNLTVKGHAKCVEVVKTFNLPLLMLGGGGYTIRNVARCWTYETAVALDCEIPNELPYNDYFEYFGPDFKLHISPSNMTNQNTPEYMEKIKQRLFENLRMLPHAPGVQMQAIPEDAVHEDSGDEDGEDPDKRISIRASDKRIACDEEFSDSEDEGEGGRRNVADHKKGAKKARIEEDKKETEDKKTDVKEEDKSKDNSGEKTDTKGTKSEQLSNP
Procedure, shortened: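 Inhibition measured by kit-based fluorogenic HDAC activity assays, with each point in duplicate or triplicate. Values come from a full 1 µM–100 pM series (1:10 steps) or are range estimates from just 20 nM and 200 nM.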

N=C(N)NCCC[C@H]1NC(=O)[C@@H]2CCCN2C(=O)[C@H](CO)NC(=O)[C@@H](Cc2c[nH]cn2)NC(=O)[C@H](CCCCCS)NC(=O)[C@H](CCCCN)NC(=O)[C@H](Cc2ccc(O)cc2)NC(=O)[C@H]2CCCN2C(=O)[C@@H](CCC(N)=O)NC1=O [des3.1.0, SHA-dHis-Ser-Pro-dArg-dGln-dPro-Tyr-Lys] (HELM PEPTIDE1{K.[O=C([C@H](CCCCCS)N[*:1])[*:2]].[dH].S.P.[dR].[dQ].[dP].Y}$PEPTIDE1,PEPTIDE1,1:R1-9:R2$$$V2.0)
HDAC6 activity raw data (signal) ([1]; Conc. 1.00E-05 M, t1): 11537
HDAC6 activity raw data (signal) ([1]; Conc. 1.00E-05 M, t2): 13038
HDAC6 activity raw data (signal) ([1]; Conc. 1.11E-06 M, t1): 76742
HDAC6 activity raw data (signal) ([1]; Conc. 1.11E-06 M, t2): 90822
HDAC6 activity raw data (signal) ([1]; Conc. 1.23E-07 M, t1): 159657
HDAC6 activity raw data (signal) ([1]; Conc. 1.23E-07 M, t2): 168002
HDAC6 activity raw data (signal) ([1]; Conc. 1.37E-08 M, t1): 160112
HDAC6 activity raw data (signal) ([1]; Conc. 1.37E-08 M, t2): 166776
HDAC6 activity raw data (signal) ([1]; Conc. 1.52E-09 M, t1): 119928
HDAC6 activity raw data (signal) ([1]; Conc. 1.52E-09 M, t2): 158551
HDAC6 activity raw data (signal) ([1]; Conc. 3.33E-06 M, t1): 37434
HDAC6 activity raw data (signal) ([1]; Conc. 3.33E-06 M, t2): 38190
HDAC6 activity raw data (signal) ([1]; Conc. 3.70E-07 M, t1): 143033
HDAC6 activity raw data (signal) ([1]; Conc. 3.70E-07 M, t2): 130317
HDAC6 activity raw data (signal) ([1]; Conc. 4.12E-08 M, t1): 144961
HDAC6 activity raw data (signal) ([1]; Conc. 4.12E-08 M, t2): 163766
HDAC6 activity raw data (signal) ([1]; Conc. 4.57E-09 M, t1): 147758
HDAC6 activity raw data (signal) ([1]; Conc. 4.57E-09 M, t2): 164399
HDAC6 activity raw data (signal) ([1]; Conc. 5.08E-10 M, t1): 111941
HDAC6 activity raw data (signal) ([1]; Conc. 5.08E-10 M, t2): 129043
HDAC3 activity raw data (signal) ([2]; Conc. 1.00E-05 M, t1): 46436
HDAC3 activity raw data (signal) ([2]; Conc. 1.00E-05 M, t2): 68834
HDAC3 activity raw data (signal) ([2]; Conc. 1.11E-06 M, t1): 407446
HDAC3 activity raw data (signal) ([2]; Conc. 1.11E-06 M, t2): 414242
HDAC3 activity raw data (signal) ([2]; Conc. 1.23E-07 M, t1): 842197
HDAC3 activity raw data (signal) ([2]; Conc. 1.23E-07 M, t2): 849517
HDAC3 activity raw data (signal) ([2]; Conc. 1.37E-08 M, t1): 932057
HDAC3 activity raw data (signal) ([2]; Conc. 1.37E-08 M, t2): 998355
HDAC3 activity raw data (signal) ([2]; Conc. 1.52E-09 M, t1): 936917
HDAC3 activity raw data (signal) ([2]; Conc. 1.52E-09 M, t2): 1040178
HDAC3 activity raw data (signal) ([2]; Conc. 3.33E-06 M, t1): 127237
HDAC3 activity raw data (signal) ([2]; Conc. 3.33E-06 M, t2): 217535
HDAC3 activity raw data (signal) ([2]; Conc. 3.70E-07 M, t1): 580195
HDAC3 activity raw data (signal) ([2]; Conc. 3.70E-07 M, t2): 672322
HDAC3 activity raw data (signal) ([2]; Conc. 4.12E-08 M, t1): 931839
HDAC3 activity raw data (signal) ([2]; Conc. 4.12E-08 M, t2): 959771
HDAC3 activity raw data (signal) ([2]; Conc. 4.57E-09 M, t1): 999086
HDAC3 activity raw data (signal) ([2]; Conc. 4.57E-09 M, t2): 1037845
HDAC3 activity raw data (signal) ([2]; Conc. 5.08E-10 M, t1): 932822
HDAC3 activity raw data (signal) ([2]; Conc. 5.08E-10 M, t2): 1013267
IC50 [3]: 1400 nM

NCCCC[C@@H]1NC(=O)[C@@H]2CCCN2C(=O)[C@H](CC(N)=O)NC(=O)[C@H](CCCCCS)NC(=O)CNC(=O)[C@H](Cc2c[nH]c3ccccc23)NC(=O)[C@@H](CCCCN)NC(=O)[C@H](CCC(N)=O)NC1=O [des1.1.0, SHA-Asn-Pro-Lys-Gln-dLys-Trp-Gly] (HELM PEPTIDE1{G.[O=C([C@H](CCCCCS)N[*:1])[*:2]].N.P.K.Q.[dK].W}$PEPTIDE1,PEPTIDE1,1:R1-8:R2$$$V2.0)
HDAC6 activity raw data (signal) ([1]; Conc. 1.00E-05 M, t1): 8262
HDAC6 activity raw data (signal) ([1]; Conc. 1.00E-05 M, t2): -132
HDAC6 activity raw data (signal) ([1]; Conc. 1.11E-06 M, t1): 22357
HDAC6 activity raw data (signal) ([1]; Conc. 1.11E-06 M, t2): 16681
HDAC6 activity raw data (signal) ([1]; Conc. 1.23E-07 M, t1): 128420
HDAC6 activity raw data (signal) ([1]; Conc. 1.23E-07 M, t2): 107875
HDAC6 activity raw data (signal) ([1]; Conc. 1.37E-08 M, t1): 427941
HDAC6 activity raw data (signal) ([1]; Conc. 1.37E-08 M, t2): 374868
HDAC6 activity raw data (signal) ([1]; Conc. 1.52E-09 M, t1): 599157
HDAC6 activity raw data (signal) ([1]; Conc. 1.52E-09 M, t2): 570644
HDAC6 activity raw data (signal) ([1]; Conc. 3.33E-06 M, t1): 12160
HDAC6 activity raw data (signal) ([1]; Conc. 3.33E-06 M, t2): 5788
HDAC6 activity raw data (signal) ([1]; Conc. 3.70E-07 M, t1): 52219
HDAC6 activity raw data (signal) ([1]; Conc. 3.70E-07 M, t2): 39167
HDAC6 activity raw data (signal) ([1]; Conc. 4.12E-08 M, t1): 251632
HDAC6 activity raw data (signal) ([1]; Conc. 4.12E-08 M, t2): 228170
HDAC6 activity raw data (signal) ([1]; Conc. 4.57E-09 M, t1): 511649
HDAC6 activity raw data (signal) ([1]; Conc. 4.57E-09 M, t2): 482006
HDAC6 activity raw data (signal) ([1]; Conc. 5.08E-10 M, t1): 622162
HDAC6 activity raw data (signal) ([1]; Conc. 5.08E-10 M, t2): 563120
IC50 ([1]; unit printed only in the axis title, read-out: HDAC6 IC50 (printed in dose-response picture)): 25 nM
HDAC3 activity raw data (signal) ([2]; Conc. 1.00E-05 M, t1): 5471
HDAC3 activity raw data (signal) ([2]; Conc. 1.00E-05 M, t2): 9474
HDAC3 activity raw data (signal) ([2]; Conc. 1.11E-06 M, t1): 58802
HDAC3 activity raw data (signal) ([2]; Conc. 1.11E-06 M, t2): 66090
HDAC3 activity raw data (signal) ([2]; Conc. 1.23E-07 M, t1): 406610
HDAC3 activity raw data (signal) ([2]; Conc. 1.23E-07 M, t2): 410292
HDAC3 activity raw data (signal) ([2]; Conc. 1.37E-08 M, t1): 1181819
HDAC3 activity raw data (signal) ([2]; Conc. 1.37E-08 M, t2): 1197870
HDAC3 activity raw data (signal) ([2]; Conc. 1.52E-09 M, t1): 1432990
HDAC3 activity raw data (signal) ([2]; Conc. 1.52E-09 M, t2): 1448071
HDAC3 activity raw data (signal) ([2]; Conc. 3.33E-06 M, t1): 23719
HDAC3 activity raw data (signal) ([2]; Conc. 3.33E-06 M, t2): 26034
HDAC3 activity raw data (signal) ([2]; Conc. 3.70E-07 M, t1): 182063
HDAC3 activity raw data (signal) ([2]; Conc. 3.70E-07 M, t2): 201749
HDAC3 activity raw data (signal) ([2]; Conc. 4.12E-08 M, t1): 761011
HDAC3 activity raw data (signal) ([2]; Conc. 4.12E-08 M, t2): 799167
HDAC3 activity raw data (signal) ([2]; Conc. 4.57E-09 M, t1): 1249527
HDAC3 activity raw data (signal) ([2]; Conc. 4.57E-09 M, t2): 1277477
HDAC3 activity raw data (signal) ([2]; Conc. 5.08E-10 M, t1): 1537856
HDAC3 activity raw data (signal) ([2]; Conc. 5.08E-10 M, t2): 1472354
IC50 [3]: 10 to 100 nM

— publication PMC8185074, “Anchor extension: a structure-guided approach to design cyclic peptides targeting enzyme active sites” (Nature Communications, 2021)
